The source of these data is patent US8629276B2, “Inhibitors of human immunodeficiency virus replication” (priority 2012, dated 2014).

Each structure is given as a SMILES string.

In this experiment the test system is recombinant NL-Rluc virus. The experiment can be described thus: Inhibition of HIV replication (NL-RLuc virus, luciferase readout in MT-2 cells). Format: cell-based. The settings on record: Human immunodeficiency virus 1, MT2, 120 h.

Regarding `Cc1nc2c(c(-c3cc(F)c4c(c3C)CCCO4)c1[C@H](OC(C)(C)C)C(=O)O)CN(CCCc1cccc(F)c1)CC2` (atropisomer, axis not shown) [Example 49, (S)-2-(tert-Butoxy)-2-((R)-4-(8-fluoro-5-methylchroman-6-yl)-6-(3-(3-fluorophenyl)propyl)-2-methyl-5,6,7,8-tetrahydro-1,6-naphthyridin-3-yl)acetic acid], the half-maximal effective concentration (EC50) was 4 nM.
As to `Cc1ccc(-c2c3c(nc(C)c2[C@H](OC(C)(C)C)C(=O)O)C(C)(C)CN(CCCc2ccccc2)C3)cc1` [Example 43, (S)-2-(tert-Butoxy)-2-(2,8,8-trimethyl-6-(3-phenylpropyl)-4-(p-tolyl)-5,6,7,8-tetrahydro-1,6-naphthyridin-3-yl)acetic acid], the EC50 is 29 nM.
Regarding `Cc1nc2c(c(-c3ccc(Cl)cc3)c1[C@H](OC(C)(C)C)C(=O)O)CN(C(=O)OCc1ccccc1)CC2` [Example 38, (S)-2-(6-((Benzyloxy)carbonyl)-4-(4-chlorophenyl)-2-methyl-5,6,7,8-tetrahydro-1,6-naphthyridin-3-yl)-2-(tert-butoxy)acetic acid], the EC50 turned out to be 543 nM.
Under `CC(C)c1nc2c(c(-c3ccc(F)cc3)c1C(OC(C)(C)C)C(=O)O)CN(C(=O)c1ccc(F)cc1)CC2(C)C` (stereo not drawn) [Example 4, 2-tert-Butoxy-2-(6-(4-fluorobenzoyl)-4-(4-fluorophenyl)-2-isopropyl-8,8-dimethyl-5,6,7,8-tetrahydro-1,6-naphthyridin-3-yl)acetic acid] stands 3160 nM; under `CC(C)c1nc2c(c(-c3ccc(F)cc3)c1C(OC(C)(C)C)C(=O)O)CN(C(=O)[C@@H]1C[C@H]1c1ccccc1)CC2(C)C` (stereo partly drawn) [Example 8, 2-tert-Butoxy-2-(4-(4-fluorophenyl)-2-isopropyl-8,8-dimethyl-6-((1R,2R)-2-phenylcyclopropanecarbonyl)-5,6,7,8-tetrahydro-1,6-naphthyridin-3-yl)acetic acid], 6720 nM.
For `CC(C)c1nc2c(c(-c3ccc(F)cc3)c1C(OC(C)(C)C)C(=O)O)CN(C(=O)Cc1ccccc1)CC2(C)C` (stereo not drawn) [Example 7, 2-tert-Butoxy-2-(4-(4-fluorophenyl)-2-isopropyl-8,8-dimethyl-6-(2-phenylacetyl)-5,6,7,8-tetrahydro-1,6-naphthyridin-3-yl)acetic acid], the EC50 came to 7540 nM.
Turning to `Cc1nc2c(c(-c3cc(F)c4c(c3C)CCCO4)c1[C@H](OC(C)(C)C)C(=O)O)CN(CC1CC1c1ccccc1)CC2` (stereo partly drawn) [Example 50, (2S)-2-(tert-Butoxy)-2-((R)-4-(8-fluoro-5-methylchroman-6-yl)-2-methyl-6-((2-phenylcyclopropyl)methyl)-5,6,7,8-tetrahydro-1,6-naphthyridin-3-yl)acetic acid], the EC50 worked out at 5 nM.
Regarding `CC(C)c1nc2c(c(-c3ccc(F)cc3)c1C(OC(C)(C)C)C(=O)O)CN(C(=O)Cc1ccc(F)cc1)CC2(C)C` (stereo not drawn) [Example 6, 2-tert-Butoxy-2-(4-(4-fluorophenyl)-6-(2-(4-fluorophenyl)acetyl)-2-isopropyl-8,8-dimethyl-5,6,7,8-tetrahydro-1,6-naphthyridin-3-yl)acetic acid], the EC50 turned out to be 185 nM.
Under `Cc1nc2c(c(-c3cc(F)c4c(c3C)CCCO4)c1[C@H](OC(C)(C)C)C(=O)O)CN(CCCc1ccc(Cl)cc1)CC2` (atropisomer, axis not shown) [Example 44, (2S)-2-(tert-Butoxy)-2-(6-(3-(4-chlorophenyl)propyl)-(R)-4-(8-fluoro-5-methylchroman-6-yl)-2-methyl-5,6,7,8-tetrahydro-1,6-naphthyridin-3-yl)acetic acid] stands 3 nM; under `CC(C)c1nc2c(c(-c3ccc(F)cc3)c1C(OC(C)(C)C)C(=O)O)CN(C(=O)CCCc1ccccc1)CC2(C)C` (stereo not drawn) [Example 9, 2-tert-Butoxy-2-(4-(4-fluorophenyl)-2-isopropyl-8,8-dimethyl-6-(4-phenylbutanoyl)-5,6,7,8-tetrahydro-1,6-naphthyridin-3-yl)acetic acid], 6710 nM.
Under `Cc1ccc(-c2c3c(nc(C)c2[C@H](OC(C)(C)C)C(=O)O)CCN(Cc2cccc(Cl)c2)C3)cc1` [Example 39, (S)-2-(tert-Butoxy)-2-(6-(3-chlorobenzyl)-2-methyl-4-(p-tolyl)-5,6,7,8-tetrahydro-1,6-naphthyridin-3-yl)acetic acid] stands 137 nM.
Consider `Cc1ccc(-c2c3c(nc(C)c2[C@H](OC(C)(C)C)C(=O)O)CCN(CCc2c[nH]c4ccccc24)C3)cc1` [Example 46, (S)-2-(6-(2-(1H-Indol-3-yl)ethyl)-2-methyl-4-(p-tolyl)-5,6,7,8-tetrahydro-1,6-naphthyridin-3-yl)-2-(tert-butoxy)acetic acid], for which the concentration for a half-maximal effect (EC50) came to 139 nM.
As for `Cc1nc2c(c(-c3cc(F)c4c(c3C)CCCO4)c1[C@H](OC(C)(C)C)C(=O)O)CN(C(=O)OCc1ccccc1)CC2(C)C` [Example 35, (2S)-2-(6-((Benzyloxy)carbonyl)-4-(8-fluoro-5-methylchroman-6-yl)-2,8,8-trimethyl-5,6,7,8-tetrahydro-1,6-naphthyridin-3-yl)-2-(tert-butoxy)acetic acid], the figure is 3 nM; as for `Cc1ccc(CCCN2CCc3nc(C)c([C@H](OC(C)(C)C)C(=O)O)c(-c4cc(F)c5c(c4C)CCCO5)c3C2)cc1F` (atropisomer, axis not shown) [Example 51], 1 nM; as for `Cc1ccc(-c2c3c(nc(C)c2C(OC(C)(C)C)C(=O)O)CCN(C(=O)CCc2ccccc2)C3)cc1` (stereo not drawn) [Example 28, 2-(tert-Butoxy)-2-(2-methyl-6-(3-phenylpropanoyl)-4-(p-tolyl)-5,6,7,8-tetrahydro-1,6-naphthyridin-3-yl)acetic acid], 335 nM.
As for `CC(C)c1nc2c(c(-c3ccc(F)cc3)c1C(OC(C)(C)C)C(=O)O)CN(c1ccccc1)CC2(C)C` (stereo not drawn) [Example 15, 2-tert-Butoxy-2-(4-(4-fluorophenyl)-2-isopropyl-8,8-dimethyl-6-phenyl-5,6,7,8-tetrahydro-1,6-naphthyridin-3-yl)acetic acid], the figure is 2090 nM; as for `CC(=O)N1Cc2c(nc(C(C)C)c(C(OC(C)(C)C)C(=O)O)c2-c2ccc(F)cc2)C(C)(C)C1` (stereo not drawn) [Example 2, 2-(6-Acetyl-4-(4-fluorophenyl)-2-isopropyl-8,8-dimethyl-5,6,7,8-tetrahydro-1,6-naphthyridin-3-yl)-2-tert-butoxyacetic acid], 10000 nM.
As for `Cc1ccc(CCCN2CCc3nc(C)c([C@H](OC(C)(C)C)C(=O)O)c(-c4cc(F)c5c(c4C)CCCO5)c3C2)cc1` [Example 54, (2S)-2-(tert-Butoxy)-2-(4-(8-fluoro-5-methylchroman-6-yl)-2-methyl-6-(3-(p-tolyl)propyl)-5,6,7,8-tetrahydro-1,6-naphthyridin-3-yl)acetic acid], the figure is 2 nM; as for `Cc1ccc(-c2c3c(nc(C)c2C(OC(C)(C)C)C(=O)O)CCN(C(=O)NCc2ccccc2)C3)cc1` (stereo not drawn) [Example 27, 2-(6-(Benzylcarbamoyl)-2-methyl-4-(p-tolyl)-5,6,7,8-tetrahydro-1,6-naphthyridin-3-yl)-2-(tert-butoxy)acetic acid], 499 nM.
With `CC(C)c1nc2c(c(-c3ccc(F)cc3)c1C(OC(C)(C)C)C(=O)O)CN(c1cccc(-c3ccccc3)c1)CC2(C)C` (stereo not drawn) [Example 17, 2-(6-([1,1′-Biphenyl]-3-yl)-4-(4-fluorophenyl)-2-isopropyl-8,8-dimethyl-5,6,7,8-tetrahydro-1,6-naphthyridin-3-yl)-2-(tert-butoxy)acetic acid], the EC50 is 4600 nM.
Under `CC(C)c1nc2c(c(-c3ccc(F)cc3)c1C(OC(C)(C)C)C(=O)O)CN(C(=O)CCc1ccccc1)CC2(C)C` (stereo not drawn) [Example 12, 2-tert-Butoxy-2-(4-(4-fluorophenyl)-2-isopropyl-8,8-dimethyl-6-(3-phenylpropanoyl)-5,6,7,8-tetrahydro-1,6-naphthyridin-3-yl)acetic acid] stands 7130 nM; under `Cc1nc2c(c(-c3cc(F)c4c(c3C)CCCO4)c1[C@H](OC(C)(C)C)C(=O)O)CN(Cc1cccc(Cl)c1)CC2(C)C` [Example 37, (2S)-2-(tert-Butoxy)-2-(6-(3-chlorobenzyl)-4-(8-fluoro-5-methylchroman-6-yl)-2,8,8-trimethyl-5,6,7,8-tetrahydro-1,6-naphthyridin-3-yl)acetic acid], 69 nM.
Under `Cc1nc2c(c(-c3cc(F)c4c(c3C)CCCO4)c1[C@H](OC(C)(C)C)C(=O)O)CN(CCCc1cccc(C(F)(F)F)c1)CC2` (atropisomer, axis not shown) [Example 53] stands 2 nM.
As for `Cc1nc2c(c(-c3cc(F)c4c(c3C)CCCO4)c1[C@H](OC(C)(C)C)C(=O)O)CN(CCCc1ccccc1)CC2(C)C` [Example 40, (2S)-2-(tert-Butoxy)-2-(4-(8-fluoro-5-methylchroman-6-yl)-2,8,8-trimethyl-6-(3-phenylpropyl)-5,6,7,8-tetrahydro-1,6-naphthyridin-3-yl)acetic acid], the figure is 2 nM; as for `Cc1ccc(-c2c3c(nc(C)c2C(OC(C)(C)C)C(=O)O)CCN(S(C)(=O)=O)C3)cc1` (stereo not drawn) [Example 22, 2-(tert-Butoxy)-2-(2-methyl-6-(methylsulfonyl)-4-(p-tolyl)-5,6,7,8-tetrahydro-1,6-naphthyridin-3-yl)acetic acid], 2650 nM.
Take `Cc1ccc(-c2c3c(nc(C)c2C(OC(C)(C)C)C(=O)O)CCN(c2ccccc2)C3)cc1` (stereo not drawn) [Example 31, 2-(tert-Butoxy)-2-(2-methyl-6-phenyl-4-(p-tolyl)-5,6,7,8-tetrahydro-1,6-naphthyridin-3-yl)acetic acid]: the EC50 came to 466 nM.
Under `Cc1ccc(-c2c3c(nc(C)c2C(OC(C)(C)C)C(=O)O)CCN(C)C3)cc1` (stereo not drawn) [Example 23, 2-(tert-Butoxy)-2-(2,6-dimethyl-4-(p-tolyl)-5,6,7,8-tetrahydro-1,6-naphthyridin-3-yl)acetic acid] stands 2080 nM.
